Source: patent publication US20230123334A1, “AMINO LIPID COMPOUND, PREPARATION METHOD THEREFOR, AND APPLICATION THEREOF” (SHENZHEN SHENXIN BIOTECHNOLOGY CO., LTD., priority 2020, published 2023)

Key:
[1] = system: HEK293 cells; assay: Preliminary screening as DNA vectors, GFP transfection of HEK293 cells; assay type: cell-based; conditions: HEK293 cells; lipid/DOPE liposome with 75 ng plasmid DNA (psin-EGFP-IRES-Puro); number of cells expressing GFP divided by total number of nuclei (Hoechst)
Procedure, shortened: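 HEK293 cells in DMEM/10% FBS transfected with 75 ng EGFP plasmid per well complexed with amino lipid/DOPE liposomes in pH 5.6 sodium acetate. Hoechst nuclear stain added 20-24 h post-transfection, then cells cultured another 20-24 h. Confocal imaging gives GFP-positive cells as % of total nuclei.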

[2] = system: HEK293 cells; assay: Preliminary screening as mRNA vectors, EGFP mRNA transfection of HEK293 cells; assay type: cell-based; conditions: HEK293 cells, 96-well plates, EGFP mRNA 50 ng per well; percentage of GFP fluorescent cells relative to total number of cells (Hoechst)
Procedure, shortened: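 HEK293 cells in DMEM plus 10% FBS transfected in 96-well format with 50 ng EGFP mRNA per well; Lipofectamine2000 served as positive control. Read-out is the percentage of GFP-fluorescent cells among total cells, counted by Hoechst nuclear stain.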

CCCCCCCCCCCCN(CCCCCCCCCCCC)c1nc(NCCCCCC)nc(NCCN2CCOCC2)n1 [N6^2N12D2]
Absolute DNA transfection efficiency in HEK293 cells [1]: 0.2%
Absolute mRNA transfection efficiency in HEK293 cells [2]: 0.0%

CCCCCCCCCCCCCCCCNc1nc(NCCCCCC)nc(NCCN2CCOCC2)n1 [Compound N6N16D2]
Absolute DNA transfection efficiency in HEK293 cells [1]: 0.0%
Absolute mRNA transfection efficiency in HEK293 cells [2]: 0.1%

CCCCCCCCCCCCCCCCSc1nc(NCCN2CCOCC2)nc(SCCCCCCCCCCCCCCC)n1 [Compound S15S16D2]
Absolute DNA transfection efficiency in HEK293 cells [1]: 0.0%
Absolute mRNA transfection efficiency in HEK293 cells [2]: 0.7%

CCCCCCCCCCCCCCCSc1nc(NCCN(CC)CC)nc(SCCCCCCCCCCCC)n1 [Compound S12S15D7]
Absolute DNA transfection efficiency in HEK293 cells [1]: 1.4%
Absolute mRNA transfection efficiency in HEK293 cells [2]: 0.0%

CCCCCCCCCCCCCNc1nc(NCCCCCCCCCCCCC)nc(NCCN2CCN(C)CC2)n1 [Compound N13N13D5]
Absolute DNA transfection efficiency in HEK293 cells [1]: 0.9%
Absolute mRNA transfection efficiency in HEK293 cells [2]: 1.7%

CCCCCCCCCCCCNc1nc(NCCCCCCCCC)nc(NCCN(CC)CC)n1 [Compound N9N12D7]
Absolute DNA transfection efficiency in HEK293 cells [1]: 0.0%
Absolute mRNA transfection efficiency in HEK293 cells [2]: 0.0%

CCCCCCCCCCCCCCCNc1nc(NCCCCCCCCCCCCC)nc(NCCN(CC)CC)n1 [Compound N13N15D7]
Absolute DNA transfection efficiency in HEK293 cells [1]: 0.8%
Absolute mRNA transfection efficiency in HEK293 cells [2]: 3.7%

CCCCCCCCCCCCCCCCCCSc1nc(NCCN2CCCC2)nc(SCCCCCCCCCCCCCCCCCC)n1 [Compound S18S18D3]
Absolute DNA transfection efficiency in HEK293 cells [1]: 0.1%
Absolute mRNA transfection efficiency in HEK293 cells [2]: 0.1%

CCCCCCCCCCCCCCCNc1nc(NCCCCCCCC)nc(NCCN2CCOCC2)n1 [Compound N8N15D2]
Absolute DNA transfection efficiency in HEK293 cells [1]: 0.0%
Absolute mRNA transfection efficiency in HEK293 cells [2]: 0.0%

CCCCCCCCCCCCCCCSc1nc(NCCN(CC)CC)nc(SCCCCCCCC)n1 [Compound S8S15D7]
Absolute DNA transfection efficiency in HEK293 cells [1]: 13.8%
Absolute mRNA transfection efficiency in HEK293 cells [2]: 0.0%

CCCCCCCCCCCCCCCCNc1nc(NCCCCCCCCCCCC)nc(NCCN(C)C)n1 [Compound N12N16D1]
Absolute DNA transfection efficiency in HEK293 cells [1]: 2.6%
Absolute mRNA transfection efficiency in HEK293 cells [2]: 4.4%

CCCCCCCCNc1nc(NCCCCCCCC)nc(NCCCN(C)C)n1 [Compound N8N8D6]
Absolute DNA transfection efficiency in HEK293 cells [1]: 0.0%
Absolute mRNA transfection efficiency in HEK293 cells [2]: 0.0%

CCCCCCCCCCCCCCCCNc1nc(NCCCCCCCC)nc(NCCN2CCCCC2)n1 [Compound N8N16D4]
Absolute DNA transfection efficiency in HEK293 cells [1]: 5.3%
Absolute mRNA transfection efficiency in HEK293 cells [2]: 2.3%

CCCCCCCCCCCCCCCCCCNc1nc(NCCCCCCCCCCCCCCCC)nc(NCCCN2CCOCC2)n1 [Compound N16N18D8]
Absolute DNA transfection efficiency in HEK293 cells [1]: 0.0%
Absolute mRNA transfection efficiency in HEK293 cells [2]: 1.0%

CCCCCCCCCNc1nc(NCCCCCCCCC)nc(NCCN(CC)CC)n1 [Compound N9N9D7]
Absolute DNA transfection efficiency in HEK293 cells [1]: 0.0%
Absolute mRNA transfection efficiency in HEK293 cells [2]: 0.3%

CCCCCCCCCCCCCCCCSc1nc(NCCCN2CCOCC2)nc(SCCCCCCCCCCCCCCCC)n1 [Compound S16S16D8]
Absolute DNA transfection efficiency in HEK293 cells [1]: 0.0%
Absolute mRNA transfection efficiency in HEK293 cells [2]: 1.7%

CCCCCCCCCCCCN(CCCCCCCCCCCC)c1nc(NCCCCCCCC)nc(NCC2CCN(C)CC2)n1 [N8^2N12D10]
Absolute DNA transfection efficiency in HEK293 cells [1]: 0.0%
Absolute mRNA transfection efficiency in HEK293 cells [2]: 2.7%

CCCCCCCCCCCCCCCSc1nc(NCCN(C)C)nc(SCCCCCCCCCCCCCC)n1 [Compound S14S15D1]
Absolute DNA transfection efficiency in HEK293 cells [1]: 0.1%
Absolute mRNA transfection efficiency in HEK293 cells [2]: 0.0%

CCCCCCCCCCCSc1nc(NCCN2CCN(C)CC2)nc(SCCCCCCCCC)n1 [Compound S9S11D5]
Absolute DNA transfection efficiency in HEK293 cells [1]: 11.4%
Absolute mRNA transfection efficiency in HEK293 cells [2]: 48.6%

CCCCCCCCNc1nc(NCCCCCCCC)nc(NCCN2CCN(C)CC2)n1 [Compound N8N8D5]
Absolute DNA transfection efficiency in HEK293 cells [1]: 0.0%
Absolute mRNA transfection efficiency in HEK293 cells [2]: 0.0%

CCCCCCCCCCCCSc1nc(NCCCN2CCN(C)CC2)nc(SCCCCCCCCCCCC)n1 [Compound S12S12D9]
Absolute DNA transfection efficiency in HEK293 cells [1]: 1.9%
Absolute mRNA transfection efficiency in HEK293 cells [2]: 1.3%

CCCCCCCCCCCCCCCCCCSc1nc(NCCN2CCCC2)nc(SCCCCCCCCCCCCCCCC)n1 [Compound S16S18D3]
Absolute DNA transfection efficiency in HEK293 cells [1]: 1.9%
Absolute mRNA transfection efficiency in HEK293 cells [2]: 1.8%

CCCCCCCCCCCCCCCCNc1nc(NCCCCCCCCCCCCC)nc(NCCN2CCOCC2)n1 [Compound N13N16D2]
Absolute DNA transfection efficiency in HEK293 cells [1]: 0.0%
Absolute mRNA transfection efficiency in HEK293 cells [2]: 1.4%

CCCCCCCCCCCCCCCNc1nc(NCCCCCCCCCCCCC)nc(NCCCN2CCN(C)CC2)n1 [Compound N13N15D9]
Absolute DNA transfection efficiency in HEK293 cells [1]: 0.2%
Absolute mRNA transfection efficiency in HEK293 cells [2]: 0.5%
